Assay results from the kinase profiling compilation of Christmann-Franck et al. (2016).

How the values were obtained:
Experiment in all cases: radiometric filter-binding kinase assay
LCK (human) = LCK (human) (UniProt P06239); details: ATP 100 µM
[1] = system: RPS6KB1 (human), P23443 [T412E]; details: ATP 100 µM
MAPK14 (human) = MAPK14 (human) (UniProt Q16539); details: ATP 100 µM
DYRK1A (rat) = details: ATP 100 µM, accession and sequence are those of the human protein
PHKG1 or PHKG2 (rabbit) = details: ATP 100 µM, accession and sequence are those of the human protein
MAPK12 (human) = MAPK12 (human) (UniProt P53778); details: ATP 100 µM
MAPK12 (human), sequence (P53778 whole entry, looked up): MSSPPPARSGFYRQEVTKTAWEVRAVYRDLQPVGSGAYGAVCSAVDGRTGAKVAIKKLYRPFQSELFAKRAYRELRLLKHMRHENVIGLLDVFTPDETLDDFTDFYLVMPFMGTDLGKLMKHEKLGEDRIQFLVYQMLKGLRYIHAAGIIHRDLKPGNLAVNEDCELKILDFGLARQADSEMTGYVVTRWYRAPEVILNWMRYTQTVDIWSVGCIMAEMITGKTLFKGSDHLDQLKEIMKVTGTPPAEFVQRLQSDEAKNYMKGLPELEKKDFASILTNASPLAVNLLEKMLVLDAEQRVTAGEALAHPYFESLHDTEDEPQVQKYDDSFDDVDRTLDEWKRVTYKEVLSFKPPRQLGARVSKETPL

CSK (human) = CSK (human) (UniProt P41240); details: ATP 100 µM
CSK (human), sequence (P41240 whole entry, looked up): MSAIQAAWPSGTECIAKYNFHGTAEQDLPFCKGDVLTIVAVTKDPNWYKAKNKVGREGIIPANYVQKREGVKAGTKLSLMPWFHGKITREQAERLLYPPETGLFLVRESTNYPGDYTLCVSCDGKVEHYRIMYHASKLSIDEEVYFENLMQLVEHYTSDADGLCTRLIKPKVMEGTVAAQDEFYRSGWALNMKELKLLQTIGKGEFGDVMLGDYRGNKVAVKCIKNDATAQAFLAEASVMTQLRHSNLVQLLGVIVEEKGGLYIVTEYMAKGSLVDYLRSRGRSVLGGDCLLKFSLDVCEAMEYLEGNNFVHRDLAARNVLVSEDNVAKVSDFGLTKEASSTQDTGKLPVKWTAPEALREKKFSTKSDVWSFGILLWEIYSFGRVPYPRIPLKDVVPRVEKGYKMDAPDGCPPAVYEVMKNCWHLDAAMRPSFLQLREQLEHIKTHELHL

AKT1 (human) = AKT1 (human) (UniProt P31749); details: ATP 100 µM
PRKCA (human) = PRKCA (human) (UniProt P17252); details: ATP 100 µM
MAP2K1 (rabbit) = details: ATP 100 µM, accession and sequence are those of the human protein
PRKAA1 or PRKAA2 (rat) = details: ATP 100 µM, accession and sequence are those of the human protein
MAPKAPK5 (human) = MAPKAPK5 (human) (UniProt Q8IW41); details: ATP 100 µM
MAPKAPK5 (human), sequence (Q8IW41 whole entry, looked up): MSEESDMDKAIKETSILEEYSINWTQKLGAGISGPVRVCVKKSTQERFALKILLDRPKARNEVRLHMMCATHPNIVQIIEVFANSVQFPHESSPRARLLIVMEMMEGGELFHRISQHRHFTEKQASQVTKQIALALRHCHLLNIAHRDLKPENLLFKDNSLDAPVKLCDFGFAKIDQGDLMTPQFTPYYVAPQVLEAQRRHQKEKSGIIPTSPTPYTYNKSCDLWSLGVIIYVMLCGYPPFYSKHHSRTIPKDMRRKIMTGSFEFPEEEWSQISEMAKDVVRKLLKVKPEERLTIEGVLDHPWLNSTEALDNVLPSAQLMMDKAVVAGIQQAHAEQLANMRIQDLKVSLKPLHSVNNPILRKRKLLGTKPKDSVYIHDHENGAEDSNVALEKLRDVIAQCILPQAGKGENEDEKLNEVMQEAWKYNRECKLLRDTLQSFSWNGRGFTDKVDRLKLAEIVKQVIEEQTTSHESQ

RPS6KA5 KD1 KD2 (human) = RPS6KA5 KD1 KD2 (human) (UniProt O75582); details: ATP 100 µM
RPS6KA5 KD1 KD2 (human), sequence (O75582 whole entry, looked up): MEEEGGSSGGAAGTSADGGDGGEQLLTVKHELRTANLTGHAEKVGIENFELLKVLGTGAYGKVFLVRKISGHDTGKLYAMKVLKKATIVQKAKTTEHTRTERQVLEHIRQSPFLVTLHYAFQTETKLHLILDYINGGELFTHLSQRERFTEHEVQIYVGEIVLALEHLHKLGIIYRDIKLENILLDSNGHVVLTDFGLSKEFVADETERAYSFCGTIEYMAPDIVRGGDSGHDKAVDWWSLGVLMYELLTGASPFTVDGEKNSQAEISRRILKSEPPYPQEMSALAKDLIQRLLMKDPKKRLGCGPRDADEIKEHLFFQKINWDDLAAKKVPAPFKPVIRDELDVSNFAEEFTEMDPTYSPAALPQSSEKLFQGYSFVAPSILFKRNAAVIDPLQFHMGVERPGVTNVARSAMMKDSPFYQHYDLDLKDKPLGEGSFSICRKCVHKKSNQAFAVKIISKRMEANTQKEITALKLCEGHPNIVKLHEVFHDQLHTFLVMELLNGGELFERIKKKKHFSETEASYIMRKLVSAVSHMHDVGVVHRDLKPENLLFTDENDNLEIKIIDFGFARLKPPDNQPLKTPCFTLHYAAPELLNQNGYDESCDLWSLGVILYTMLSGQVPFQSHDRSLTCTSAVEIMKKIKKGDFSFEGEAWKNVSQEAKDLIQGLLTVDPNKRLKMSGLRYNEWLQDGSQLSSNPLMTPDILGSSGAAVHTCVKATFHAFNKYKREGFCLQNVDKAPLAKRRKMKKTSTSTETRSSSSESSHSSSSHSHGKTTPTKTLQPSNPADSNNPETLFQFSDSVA

MAPK13 (human) = MAPK13 (human) (UniProt O15264); details: ATP 100 µM
MAPK13 (human), sequence (O15264 whole entry, looked up): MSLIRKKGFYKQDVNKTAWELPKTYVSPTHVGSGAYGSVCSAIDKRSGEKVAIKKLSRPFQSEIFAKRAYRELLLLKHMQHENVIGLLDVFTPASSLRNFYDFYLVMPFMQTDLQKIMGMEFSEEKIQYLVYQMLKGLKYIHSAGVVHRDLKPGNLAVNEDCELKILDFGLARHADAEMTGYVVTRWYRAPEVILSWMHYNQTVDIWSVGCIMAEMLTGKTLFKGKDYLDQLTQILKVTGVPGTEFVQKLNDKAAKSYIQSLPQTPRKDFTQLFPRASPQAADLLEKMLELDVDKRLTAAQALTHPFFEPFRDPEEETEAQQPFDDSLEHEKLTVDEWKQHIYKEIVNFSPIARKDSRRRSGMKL

RPS6KA1 (rat) = details: ATP 100 µM, accession and sequence are those of the human protein
ROCK2 (rat) = details: ATP 100 µM, accession and sequence are those of the human protein
CDK2 CCNA2 (human) = CDK2 CCNA2 (human) (UniProt P24941+P20248); details: ATP 100 µM
[2] = system: SGK1 (human), O00141 [S422D]; details: ATP 100 µM
SGK1 (human), O00141 [S422D], sequence (O00141 whole entry S422D, looked up): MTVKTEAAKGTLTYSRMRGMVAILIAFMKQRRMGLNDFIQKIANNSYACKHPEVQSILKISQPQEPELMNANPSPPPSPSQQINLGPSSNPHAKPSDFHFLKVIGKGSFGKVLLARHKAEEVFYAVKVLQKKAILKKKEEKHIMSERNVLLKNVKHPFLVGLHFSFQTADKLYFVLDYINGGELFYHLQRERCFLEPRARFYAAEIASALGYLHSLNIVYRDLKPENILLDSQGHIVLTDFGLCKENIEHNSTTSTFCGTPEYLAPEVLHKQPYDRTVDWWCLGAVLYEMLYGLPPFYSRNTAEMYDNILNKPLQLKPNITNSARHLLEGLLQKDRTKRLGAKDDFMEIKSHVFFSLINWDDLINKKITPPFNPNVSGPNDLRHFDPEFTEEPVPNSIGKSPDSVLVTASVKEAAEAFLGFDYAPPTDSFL

MAPK11 (human) = MAPK11 (human) (UniProt Q15759); details: ATP 100 µM
MAPK11 (human), sequence (Q15759 whole entry, looked up): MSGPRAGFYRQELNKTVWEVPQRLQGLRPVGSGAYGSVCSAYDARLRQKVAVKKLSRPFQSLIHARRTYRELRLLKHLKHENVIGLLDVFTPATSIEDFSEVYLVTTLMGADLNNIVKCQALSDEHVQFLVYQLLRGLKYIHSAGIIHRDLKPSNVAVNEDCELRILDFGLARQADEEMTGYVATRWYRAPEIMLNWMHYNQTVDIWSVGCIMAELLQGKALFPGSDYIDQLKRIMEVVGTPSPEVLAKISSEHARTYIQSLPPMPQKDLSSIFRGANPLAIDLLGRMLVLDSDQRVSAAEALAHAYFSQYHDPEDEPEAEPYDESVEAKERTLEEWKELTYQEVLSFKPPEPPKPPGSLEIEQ

[3] = target: CSNK2A1 or CSNK2A2 (human) (UniProt P19784+P68400); details: ATP 100 µM
PRKACA or PRKACB (cow) = details: accession and sequence are those of the human protein
GSK3B (human) = GSK3B (human) (UniProt P49841); details: ATP 100 µM
PRKG1 (human) = PRKG1 (human) (UniProt Q13976); details: compound 10.0 µM; ATP 100 µM
MAPK8 (human) = MAPK8 (human) (UniProt P45983); details: ATP 100 µM
PDPK1 (human) = PDPK1 (human) (UniProt O15530); details: ATP 100 µM
PDPK1 (human), sequence (O15530 whole entry, looked up): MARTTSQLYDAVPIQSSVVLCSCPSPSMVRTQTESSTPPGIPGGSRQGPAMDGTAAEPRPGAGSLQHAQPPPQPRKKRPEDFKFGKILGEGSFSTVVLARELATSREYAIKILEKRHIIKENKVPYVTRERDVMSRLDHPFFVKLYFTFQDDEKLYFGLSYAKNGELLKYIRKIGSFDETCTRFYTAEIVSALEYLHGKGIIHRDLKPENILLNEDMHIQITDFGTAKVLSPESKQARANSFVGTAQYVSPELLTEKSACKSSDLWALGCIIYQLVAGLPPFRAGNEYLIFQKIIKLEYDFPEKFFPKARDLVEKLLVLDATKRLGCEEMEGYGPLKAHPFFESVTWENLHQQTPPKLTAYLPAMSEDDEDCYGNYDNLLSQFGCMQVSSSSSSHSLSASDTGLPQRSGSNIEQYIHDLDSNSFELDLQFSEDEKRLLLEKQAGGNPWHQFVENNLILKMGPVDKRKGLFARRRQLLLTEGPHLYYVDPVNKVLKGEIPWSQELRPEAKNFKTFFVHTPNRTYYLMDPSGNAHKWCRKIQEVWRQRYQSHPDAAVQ

CSNK1A1 (rat) = details: ATP 100 µM, accession and sequence are those of the human protein
MAPK1 (mouse) = details: ATP 100 µM, accession and sequence are those of the human protein
CHEK1 (human) = CHEK1 (human) (UniProt O14757); details: ATP 100 µM
MAPKAPK2 (human) = MAPKAPK2 (human) (UniProt P49137); details: ATP 100 µM
RPS6KA1 (human) = RPS6KA1 (human) (UniProt Q15418); details: ATP 100 µM
MYLK2 (human) = MYLK2 (human) (UniProt Q9H1R3); details: compound 20.0 µM; ATP 100 µM
MYLK (human) = MYLK (human) (UniProt Q15746); details: compound 20.0 µM; ATP 100 µM

MAPK14 (human), sequence (Q16539 whole entry, looked up): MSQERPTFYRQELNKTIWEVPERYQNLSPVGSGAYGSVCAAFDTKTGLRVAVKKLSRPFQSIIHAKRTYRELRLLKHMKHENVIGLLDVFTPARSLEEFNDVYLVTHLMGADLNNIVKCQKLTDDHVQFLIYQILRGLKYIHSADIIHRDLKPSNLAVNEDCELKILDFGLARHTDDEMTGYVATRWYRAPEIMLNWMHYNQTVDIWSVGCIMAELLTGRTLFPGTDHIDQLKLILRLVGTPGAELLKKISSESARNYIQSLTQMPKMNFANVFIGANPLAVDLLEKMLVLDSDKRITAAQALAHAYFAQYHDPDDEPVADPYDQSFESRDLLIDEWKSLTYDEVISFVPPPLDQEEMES
LCK (human), sequence (P06239 whole entry, looked up): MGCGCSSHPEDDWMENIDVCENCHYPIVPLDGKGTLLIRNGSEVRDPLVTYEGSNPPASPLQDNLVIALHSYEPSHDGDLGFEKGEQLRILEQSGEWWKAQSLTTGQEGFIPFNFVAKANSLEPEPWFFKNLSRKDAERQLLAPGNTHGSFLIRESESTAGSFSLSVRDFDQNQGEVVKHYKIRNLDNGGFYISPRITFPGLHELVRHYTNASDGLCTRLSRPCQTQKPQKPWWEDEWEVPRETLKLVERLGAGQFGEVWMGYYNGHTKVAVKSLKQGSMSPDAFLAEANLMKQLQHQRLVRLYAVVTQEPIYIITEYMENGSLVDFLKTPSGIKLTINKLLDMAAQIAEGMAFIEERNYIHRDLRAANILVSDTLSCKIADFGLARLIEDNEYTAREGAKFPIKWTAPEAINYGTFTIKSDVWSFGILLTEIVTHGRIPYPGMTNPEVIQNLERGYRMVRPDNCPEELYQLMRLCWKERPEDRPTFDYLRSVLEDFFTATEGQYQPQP

## COC(=O)[C@@]1(OC)C[C@@H]2O[C@]1(C)n1c3ccccc3c3c4c(c5c6ccccc6n2c5c31)C(=O)N(C)C4
LCK (human); compound 10.0 µM
  residual activity: 94%
[1]; compound 10.0 µM
  residual activity: 90%
MAPK14 (human); compound 10.0 µM
  residual activity: 102%
DYRK1A (rat); compound 10.0 µM
  residual activity: 112%
PHKG1 or PHKG2 (rabbit); compound 10.0 µM
  residual activity: 99%
MAPK12 (human); compound 10.0 µM
  residual activity: 103%
CSK (human); compound 10.0 µM
  residual activity: 93%
AKT1 (human); compound 10.0 µM
  residual activity: 83%
PRKCA (human); compound 10.0 µM
  residual activity: 102%
MAP2K1 (rabbit); compound 10.0 µM
  residual activity: 99%
PRKAA1 or PRKAA2 (rat); compound 10.0 µM
  residual activity: 90%
MAPKAPK5 (human); compound 10.0 µM
  residual activity: 83%
RPS6KA5 KD1 KD2 (human); compound 10.0 µM
  residual activity: 74%
MAPK13 (human); compound 10.0 µM
  residual activity: 105%
RPS6KA1 (rat); compound 10.0 µM
  residual activity: 105%
ROCK2 (rat); compound 10.0 µM
  residual activity: 97%
CDK2 CCNA2 (human); compound 10.0 µM
  residual activity: 94%
[2]; compound 10.0 µM
  residual activity: 72%
MAPK11 (human); compound 10.0 µM
  residual activity: 100%
[3]; compound 10.0 µM
  residual activity: 98%
PRKACA or PRKACB (cow); compound 10.0 µM
  residual activity: 102%
GSK3B (human); compound 10.0 µM
  residual activity: 52%
PRKG1 (human)
  residual activity: 109%
MAPK8 (human); compound 10.0 µM
  residual activity: 99%
PDPK1 (human); compound 10.0 µM
  residual activity: 114%
CSNK1A1 (rat); compound 10.0 µM
  residual activity: 83%
MAPK1 (mouse); compound 10.0 µM
  residual activity: 106%
CHEK1 (human); compound 10.0 µM
  residual activity: 93%
MAPKAPK2 (human); compound 10.0 µM
  residual activity: 71%

## CC(C)[C@H](CO)Nc1nc(Nc2cccc(Cl)c2)c2ncn(C(C)C)c2n1
LCK (human); compound 10.0 µM
  residual activity: 22%
[1]; compound 10.0 µM
  residual activity: 79%
MAPK14 (human); compound 10.0 µM
  residual activity: 101%
DYRK1A (rat)
  IC50: 300 nM
DYRK1A (rat); compound 10.0 µM
  residual activity: 6%
PHKG1 or PHKG2 (rabbit); compound 10.0 µM
  residual activity: 36%
MAPK12 (human); compound 10.0 µM
  residual activity: 105%
CSK (human); compound 10.0 µM
  residual activity: 20%
AKT1 (human); compound 10.0 µM
  residual activity: 88%
MAP2K1 (rabbit); compound 10.0 µM
  residual activity: 80%
PRKAA1 or PRKAA2 (rat); compound 10.0 µM
  residual activity: 59%
MAPKAPK5 (human); compound 10.0 µM
  residual activity: 76%
RPS6KA5 KD1 KD2 (human); compound 10.0 µM
  residual activity: 88%
MAPK13 (human); compound 10.0 µM
  residual activity: 98%
RPS6KA1 (rat); compound 10.0 µM
  residual activity: 15%
ROCK2 (rat); compound 10.0 µM
  residual activity: 57%
CDK2 CCNA2 (human); compound 10.0 µM
  residual activity: 2%
[2]; compound 10.0 µM
  residual activity: 91%
MAPK11 (human); compound 10.0 µM
  residual activity: 117%
[3]; compound 10.0 µM
  residual activity: 95%
PRKACA or PRKACB (cow); compound 10.0 µM
  residual activity: 82%
GSK3B (human); compound 10.0 µM
  residual activity: 84%
RPS6KA1 (human)
  IC50: 1490 nM
MAPK8 (human); compound 10.0 µM
  residual activity: 84%
PDPK1 (human); compound 10.0 µM
  residual activity: 103%
CSNK1A1 (rat); compound 10.0 µM
  residual activity: 75%
MAPK1 (mouse); compound 10.0 µM
  residual activity: 26%
CHEK1 (human); compound 10.0 µM
  residual activity: 78%
MAPKAPK2 (human); compound 10.0 µM
  residual activity: 97%

## O=S(=O)(c1cccc2c(I)cccc12)N1CCCNCC1
LCK (human); compound 20.0 µM
  residual activity: 87%
[1]; compound 20.0 µM
  residual activity: 74%
MAPK14 (human); compound 20.0 µM
  residual activity: 100%
DYRK1A (rat); compound 20.0 µM
  residual activity: 66%
PHKG1 or PHKG2 (rabbit); compound 20.0 µM
  residual activity: 85%
MAPK12 (human); compound 20.0 µM
  residual activity: 95%
CSK (human); compound 20.0 µM
  residual activity: 94%
AKT1 (human); compound 20.0 µM
  residual activity: 88%
PRKCA (human); compound 20.0 µM
  residual activity: 85%
MAP2K1 (rabbit); compound 20.0 µM
  residual activity: 102%
PRKAA1 or PRKAA2 (rat); compound 20.0 µM
  residual activity: 82%
MAPKAPK5 (human); compound 20.0 µM
  residual activity: 78%
RPS6KA5 KD1 KD2 (human); compound 20.0 µM
  residual activity: 59%
MAPK13 (human); compound 20.0 µM
  residual activity: 75%
MYLK2 (human)
  residual activity: 63%
RPS6KA1 (rat); compound 20.0 µM
  residual activity: 99%
ROCK2 (rat); compound 20.0 µM
  residual activity: 74%
CDK2 CCNA2 (human); compound 20.0 µM
  residual activity: 73%
[2]; compound 20.0 µM
  residual activity: 101%
MAPK11 (human); compound 20.0 µM
  residual activity: 89%
[3]; compound 20.0 µM
  residual activity: 83%
PRKACA or PRKACB (cow); compound 20.0 µM
  residual activity: 85%
GSK3B (human); compound 20.0 µM
  residual activity: 107%
MAPK8 (human); compound 20.0 µM
  residual activity: 97%
PDPK1 (human); compound 20.0 µM
  residual activity: 107%
CSNK1A1 (rat); compound 20.0 µM
  residual activity: 106%
MAPK1 (mouse); compound 20.0 µM
  residual activity: 85%
CHEK1 (human); compound 20.0 µM
  residual activity: 94%
MYLK (human)
  residual activity: 10%
MAPKAPK2 (human); compound 20.0 µM
  residual activity: 93%
